The test system of assay [1] is Hepatitis B virus. The assay is described as follows: Antiviral activity against HBV infected in human HepG2-NTCP12 cells assessed as inhibition of viral replication. It is filed as functional, organism-based.
The subject of assay [2] is Hepatitis B virus. In words: Antiviral activity against HBV infected in human Primary hepatocytes assessed as reduction in HBV DNA level measured after 16 days by ELISA. Particulars: Hepatocyte, 384 h.
The test system of assay [3] is Hepatitis B virus. The assay is described as follows: Antiviral activity against HBV infected in human HePAD38 cells assessed as reduction in viral replication by qPCR analysis. The class given is functional, organism-based. (Real-time PCR tracks product formation cycle by cycle.)
For assay [4], the target named is Triosephosphate isomerase (Homo sapiens, UniProt P60174). The assay is described as follows: Inhibition of TPI1 (unknown origin).
In assay [5] the test system is Hepatitis B virus. In words: Antiviral activity against Hepatitis B virus assessed as inhibition of HBV DNA replication. It is filed as functional, organism-based.
The subject of assay [6] is Hepatitis B virus. In words: Antiviral activity against HBV infected in human HepG2.2.15 cells assessed as reduction in viral DNA levels incubated for 6 days by PCR analysis. It is filed as functional, organism-based. Particulars: HepG2.2.15, 144 h.
Assay [7] can be described thus: Inhibition of HBV RNA polymerase. More on the design: species or system Hepatitis B virus.
Assay [8] has as its system Hepatitis B virus. The assay is described as follows: Antiviral activity against HBV infected in human Primary hepatocyte assessed as reduction in HBV replication. The class given is functional, organism-based.
Assay [9] has as its target T1, Hepatic sodium/bile acid cotransporter (Homo sapiens, UniProt Q14973).
T1 sequence (Q14973 whole entry): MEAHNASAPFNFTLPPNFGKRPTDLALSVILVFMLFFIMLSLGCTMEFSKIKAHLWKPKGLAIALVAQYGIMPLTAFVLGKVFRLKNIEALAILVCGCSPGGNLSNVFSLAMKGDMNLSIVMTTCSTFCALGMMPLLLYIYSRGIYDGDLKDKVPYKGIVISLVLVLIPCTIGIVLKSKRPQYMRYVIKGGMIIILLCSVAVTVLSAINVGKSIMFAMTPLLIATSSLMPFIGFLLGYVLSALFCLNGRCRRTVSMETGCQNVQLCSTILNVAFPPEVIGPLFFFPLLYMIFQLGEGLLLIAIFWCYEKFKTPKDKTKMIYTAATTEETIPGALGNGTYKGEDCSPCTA
The assay is described as follows: Inhibition of NTCP (unknown origin).

In assay [10] the target is T1, Hepatic sodium/bile acid cotransporter. The assay is described as follows: Inhibition of NTCP (unknown origin) stably transfected in HEK293 cells. The class given is cell-based.
Assay [11] deals with Hepatitis B virus. The assay is described as follows: Antiviral activity against wild type HBV infected in HepG2.2.15 cells assessed as reduction in viral replication. The class given is functional, organism-based.
Assay [12] deals with Hepatitis B virus. The assay is described as follows: Antiviral activity against HBV infected in human HepG2.2.15 cells. The class given is functional, organism-based.
For assay [13], the system named is Hepatitis B virus. The assay is described as follows: Antiviral activity against HBV infected in human HepG2-hNTCP cells assessed as reduction in HBV DNA replication by qRT-PCR analysis. The class given is functional, organism-based.

≈ marks a conversion by molar mass, not a printed value. Residues, ends and D or L forms follow the SMILES beside them. A value given as a limit tells only on which side of the number the result lay.

The term EC50 denotes the concentration at which the effect is half-maximal. Usually IC50 stands for the midpoint of a concentration-inhibition curve. Read a low IC50 as greater potency.

Chain of Triosephosphate isomerase (P60174 whole entry): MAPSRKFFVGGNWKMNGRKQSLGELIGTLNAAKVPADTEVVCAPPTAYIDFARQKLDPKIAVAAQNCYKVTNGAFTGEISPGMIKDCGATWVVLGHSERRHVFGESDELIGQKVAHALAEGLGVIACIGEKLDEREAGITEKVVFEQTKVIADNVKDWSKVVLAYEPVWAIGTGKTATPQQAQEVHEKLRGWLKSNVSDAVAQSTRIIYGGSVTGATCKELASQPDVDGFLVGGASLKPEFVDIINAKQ

As to `CN1[C@H](C(=O)Nc2ccc(F)c(Cl)c2)C[C@H](c2ncc(-c3cn(C)cn3)s2)NS1(=O)=O`, the EC50 in the assay with Hepatitis B virus [1] was found to be 0.027 µM; in the assay with Hepatitis B virus [2] it was 0.041 µM; in the assay on Hepatitis B virus [3], 0.022 µM.

`CCCCCCCc1cc(OC(=O)c2c(CCCCCCC)cc(O)cc2O[C@H]2O[C@@H](CO)[C@H](O)[C@@H](O)[C@@H]2O)cc(O)c1C(=O)O` registered an IC50 in [4] of 1.7 µM.

As to `O=C(NCc1ccc(-c2cccnc2)nc1)c1ccc2nccnc2c1`, the EC50 in the assay with Hepatitis B virus [5] is above 10 µM.

In the case of `O=C(Nc1ccc(F)c(Cl)c1)c1cc(S(=O)(=O)NC2CCCC2)cc2c1OCCO2`, the EC50 in the assay with Hepatitis B virus [6] worked out at 0.5 µM.

Molecule `CC[C@H](C)C[C@H](C)C(=O)O[C@]1(C)C(=O)c2c(cc(O)c3c2C[C@@H](O)C[C@H]3C)[C@@](C)(O)C1=O` registered an IC50 in assay [4] of 0.61 µM.

As for `O=C(OCc1ccc(-c2cnc3ccccc3n2)cc1)c1cccs1`, in the assay with Hepatitis B virus [5], the EC50 was above 10 µM.

Regarding `NCCCC(=O)NCc1nc(-c2cccc(F)c2)c(-c2ccccn2)[nH]1`, in the assay on Hepatitis B virus [5], the EC50 is above 10 µM.

In assay [4], `C[C@]12CCCC[C@@H]1CC[C@@H]1[C@@H]2CC[C@]2(C)[C@@H]([C@H](O)CCc3ccc(F)cc3)CC[C@@H]12` gave an IC50 of 10.6 µM.

In assay [7], `CCOC(=O)c1cc(-c2cc(=O)oc3ccccc23)oc1C` gave an IC50 of 16.7 µM.

As for `CCOC(=O)c1cc(-c2cc(C(=O)OCC)c3ccccc3n2)nc2ccccc12`, the EC50 in the assay with Hepatitis B virus [5] was above 10 µM.

In the case of `O=C(O)C1CC(OCCOc2ccc(-c3cc(=O)c4cccc(Cl)c4o3)cc2)C1` (configuration not stated), in the assay on Hepatitis B virus [8], the 50% effective concentration (EC50) came out at 0.2 µM.

Regarding `COc1cc([C@H]2c3cc4c(cc3[C@H](n3cc(CO[C@H]5CC[C@]6(C)[C@H]7CC=C8[C@@H]9CC(C)(C)CC[C@]9(C(=O)O)CC[C@@]8(C)[C@]7(C)CC[C@H]6C5(C)C)nn3)[C@H]3COC(=O)[C@H]23)OCO4)cc(OC)c1OC`, in [9], inhibition was half-maximal at 0.07 µM (IC50).

On to `C/C(=N\c1cccc(F)c1)c1c(C)cc(=O)n(O)c1O`, for which the EC50 with Hepatitis B virus [5] was 2.1 µM.

Regarding `C=C(C)[C@@H]1CC[C@]2(C(=O)NCc3cn([C@H]4c5cc6c(cc5[C@H](c5cc(OC)c(OC)c(OC)c5)[C@H]5C(=O)OC[C@@H]54)OCO6)nn3)CC[C@@]3(C)[C@]4(C)CC[C@H]5C(C)(C)[C@@H](O)CC[C@]5(C)[C@H]4CC[C@]3(C)[C@@H]12`, half-maximal inhibition in assay [9] (IC50) required 0.79 µM.

As for `Cc1nc(-c2c(-c3ccccc3)ncn2Cc2cccc3[nH]ccc23)c[nH]1`, the concentration giving a half-maximal response (EC50) in the assay on Hepatitis B virus [5] was 10 µM.

In turn, `CCC[C@@H]1NC(=O)[C@H](CC(C)C)N(C)C(=O)[C@H](CC(C)C)N(C)C(=O)CN(CCO)C(=O)[C@H](CC(C)C)N(C)C(=O)[C@@H](C)NC(=O)[C@H](CCC(N)=O)NC(=O)[C@H](CC(C)C)N(C)C(=O)[C@H](C(C)C)NC(=O)[C@H](CC(C)C)N(C)C(=O)CN(C)C1=O` (HELM PEPTIDE1{[meL].[meL].[Nva].[Sar].[meL].V.[meL].Q.[dA].[meL].[O=C(CN(CCO)[*:1])[*:2]]}$PEPTIDE1,PEPTIDE1,1:R1-11:R2$$$V2.0) showed an IC50 in assay [10] of 0.36 µM.

Consider `COc1cc(C[C@@H]2CO[C@@H](c3ccc(O)c(OC)c3)[C@@H]2CO)ccc1O` [(-)-Lariciresinol], for which, in the assay with Hepatitis B virus [11], the 50% effective concentration (EC50) is 42.6 µM.

As for `O=c1cc(-c2ccc(O)c(-c3c(O)cc(O)c4c(=O)cc(-c5ccc(O)cc5)oc34)c2)oc2cc(O)cc(O)c12` [AMENTOFLAVONE], the 50% effective concentration (EC50) with Hepatitis B virus [12] came out at 48.6 mg/L (≈ 90.3 µM).

In turn, `C=C(c1ccc(C(=O)O)cc1)c1cc2c(cc1C)C(C)(C)CCC2(C)C` [BEXAROTENE] showed a concentration for half-maximal inhibition (IC50) in assay [4] of 1.89 µM.

On to `O=c1cc(-c2ccccc2)oc2cc(O)cc(O)c12` [CHRYSIN], for which the EC50 with Hepatitis B virus [8] came to 22.5 µM.

With `COc1cc2c(O[C@@H]3OC[C@](O)(CO[C@@H]4OC[C@@H](O)[C@H](O)[C@H]4O)[C@H]3O[C@@H]3OC[C@H](O)[C@H](O)[C@H]3O)c3c(c(-c4ccc5c(c4)OCO5)c2cc1OC)C(=O)OC3` [CILIATOSIDE A], the EC50 in the assay on Hepatitis B virus [13] was 5.13 µM; in the assay on Hepatitis B virus [8], 3.36 µM.

Regarding `C[C@]12CC[C@@H]3c4ccc(OC(=O)c5ccccc5)cc4CC[C@H]3[C@@H]1CC[C@@H]2O` [ESTRADIOL BENZOATE], in assay [7], the IC50 turned out to be 279 µM.

In the case of `O=c1ccc2cc3ccoc3cc2o1` [PSORALEN], the EC50 in the assay with Hepatitis B virus [11] was 63.7 µM.

In the assay on Hepatitis B virus [12], `COc1ccc(-c2cc(=O)c3c(O)cc(O)c(-c4cc(-c5cc(=O)c6c(O)cc(OC)cc6o5)ccc4OC)c3o2)cc1` [SCIADOPITISIN] came in with an EC50 of 56.4 mg/L (≈ 97.2 µM).

The values above are taken from ChEMBL document CHEMBL6127056, “Novel mechanistic insights - A brand new Era for anti-HBV drugs” (Eur J Med Chem, 2024).
